Results: ChEMBL document CHEMBL4007467, “Effects of 6-paradol, an unsaturated ketone from gingers, on cytochrome P450-mediated drug metabolism” (Bioorg Med Chem Lett, 2017)

How the values were obtained:
Format in all cases: ADME
Design in all cases: scale not given: the % may be the effect or the level left
CYP1A2 [1] = biological target: T1, CYP1A2 (Homo sapiens, UniProt P05177); test: Inhibition of CYP1A2 in human liver microsomes assessed as enzyme-mediated metabolite formation at 0.1 uM using phenacetin as substrate incubated for 5 mins followed by NADPH addition measured after 30 mins by LC-MS/MS analysis relative to control; settings: probe phenacetin, read-out: Activity
T1 sequence (P05177 whole entry): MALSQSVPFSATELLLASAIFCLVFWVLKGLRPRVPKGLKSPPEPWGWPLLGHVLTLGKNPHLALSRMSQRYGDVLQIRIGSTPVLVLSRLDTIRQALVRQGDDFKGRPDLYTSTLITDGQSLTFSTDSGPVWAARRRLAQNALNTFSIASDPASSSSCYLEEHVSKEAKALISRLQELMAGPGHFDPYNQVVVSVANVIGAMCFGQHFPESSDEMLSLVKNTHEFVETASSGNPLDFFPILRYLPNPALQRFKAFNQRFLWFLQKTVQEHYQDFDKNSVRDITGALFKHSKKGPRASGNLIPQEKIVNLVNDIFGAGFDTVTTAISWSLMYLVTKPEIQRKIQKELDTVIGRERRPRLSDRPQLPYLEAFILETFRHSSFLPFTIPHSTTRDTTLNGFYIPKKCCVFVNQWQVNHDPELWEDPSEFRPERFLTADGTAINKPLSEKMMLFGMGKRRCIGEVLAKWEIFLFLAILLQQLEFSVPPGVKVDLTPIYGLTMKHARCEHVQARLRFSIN

CYP2A6 [2] = biological target: T2, CYP2A6 (Homo sapiens, UniProt P11509); test: Inhibition of CYP2A6 in human liver microsomes assessed as enzyme-mediated metabolite formation at 0.1 uM using coumarin as substrate incubated for 5 mins followed by NADPH addition measured after 30 mins by LC-MS/MS analysis relative to control; settings: probe coumarin, read-out: Activity
T2 sequence (P11509 whole entry): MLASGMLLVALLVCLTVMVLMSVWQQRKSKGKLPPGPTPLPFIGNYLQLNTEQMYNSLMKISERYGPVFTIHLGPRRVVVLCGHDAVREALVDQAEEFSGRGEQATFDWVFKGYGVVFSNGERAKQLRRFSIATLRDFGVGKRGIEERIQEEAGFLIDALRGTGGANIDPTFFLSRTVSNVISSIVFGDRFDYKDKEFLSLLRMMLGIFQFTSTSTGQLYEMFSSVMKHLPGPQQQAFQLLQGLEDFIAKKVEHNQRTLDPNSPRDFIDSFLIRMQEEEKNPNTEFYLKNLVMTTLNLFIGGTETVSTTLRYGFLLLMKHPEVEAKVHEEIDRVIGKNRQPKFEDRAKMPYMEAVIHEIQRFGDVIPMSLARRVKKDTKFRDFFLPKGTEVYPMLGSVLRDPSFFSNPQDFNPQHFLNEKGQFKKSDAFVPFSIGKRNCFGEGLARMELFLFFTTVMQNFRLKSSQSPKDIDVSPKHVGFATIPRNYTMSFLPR

CYP1A2 [3] = biological target: T1, CYP1A2; test: Inhibition of CYP1A2 in human liver microsomes assessed as enzyme-mediated metabolite formation at 1 uM using phenacetin as substrate incubated for 5 mins followed by NADPH addition measured after 30 mins by LC-MS/MS analysis relative to control; settings: probe phenacetin, read-out: Activity
CYP1A2 [4] = biological target: T1, CYP1A2; test: Inhibition of CYP1A2 in human liver microsomes assessed as enzyme-mediated metabolite formation at 3 uM using phenacetin as substrate incubated for 5 mins followed by NADPH addition measured after 30 mins by LC-MS/MS analysis relative to control; settings: probe phenacetin, read-out: Activity
CYP2A6 [5] = biological target: T2, CYP2A6; test: Inhibition of CYP2A6 in human liver microsomes assessed as enzyme-mediated metabolite formation at 3 uM using coumarin as substrate incubated for 5 mins followed by NADPH addition measured after 30 mins by LC-MS/MS analysis relative to control; settings: probe coumarin, read-out: Activity
CYP2C9 = CYP2C9 (Homo sapiens, UniProt P11712); test: Inhibition of CYP2C9 in human liver microsomes assessed as enzyme-mediated metabolite formation at 1 uM using diclofenac as substrate incubated for 5 mins followed by NADPH addition measured after 30 mins by LC-MS/MS analysis relative to control; settings: probe diclofenac, read-out: Activity
CYP3A4 [6] = biological target: T3, CYP3A4 (Homo sapiens, UniProt P08684); test: Inhibition of CYP3A4 in human liver microsomes assessed as enzyme-mediated metabolite formation at 1 uM using midazolam as substrate incubated for 5 mins followed by NADPH addition measured after 30 mins by LC-MS/MS analysis relative to control; settings: probe midazolam, read-out: Activity
CYP3A4 [7] = biological target: T3, CYP3A4; test: Inhibition of CYP3A4 in human liver microsomes assessed as enzyme-mediated metabolite formation at 30 uM using testosterone as substrate incubated for 5 mins followed by NADPH addition measured after 30 mins by LC-MS/MS analysis relative to control; settings: probe testosterone, read-out: Activity
CYP2B6 [8] = biological target: T4, CYP2B6 (Homo sapiens, UniProt P20813); test: Inhibition of CYP2B6 in human liver microsomes assessed as enzyme-mediated metabolite formation at 1 uM using bupropion as substrate preincubated for 20 mins followed by substrate addition measured after 30 mins in presence of NADPH by LC-MS/MS analysis relative to control; settings: probe bupropion, read-out: Activity
T4 sequence (P20813 whole entry): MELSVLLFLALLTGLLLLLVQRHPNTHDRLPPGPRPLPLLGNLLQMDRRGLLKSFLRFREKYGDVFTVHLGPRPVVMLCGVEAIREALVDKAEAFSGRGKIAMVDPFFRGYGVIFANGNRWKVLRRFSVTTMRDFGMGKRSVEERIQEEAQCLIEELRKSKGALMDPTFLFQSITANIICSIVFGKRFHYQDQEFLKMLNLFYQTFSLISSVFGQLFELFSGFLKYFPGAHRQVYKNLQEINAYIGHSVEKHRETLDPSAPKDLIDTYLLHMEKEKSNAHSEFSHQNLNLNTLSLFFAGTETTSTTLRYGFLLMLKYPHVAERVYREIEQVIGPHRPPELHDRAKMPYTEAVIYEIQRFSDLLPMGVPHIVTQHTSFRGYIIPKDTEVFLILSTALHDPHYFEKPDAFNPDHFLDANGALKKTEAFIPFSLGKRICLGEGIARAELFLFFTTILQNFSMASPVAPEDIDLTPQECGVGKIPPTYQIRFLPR

CYP2B6 [9] = biological target: T4, CYP2B6; test: Inhibition of CYP2B6 in human liver microsomes assessed as enzyme-mediated metabolite formation at 10 uM using bupropion as substrate preincubated for 20 mins followed by substrate addition measured after 30 mins in presence of NADPH by LC-MS/MS analysis relative to control; settings: probe bupropion, read-out: Activity
CYP3A4 [10] = biological target: T3, CYP3A4; test: Inhibition of CYP3A4 in human liver microsomes assessed as enzyme-mediated metabolite formation at 0.3 uM using midazolam as substrate preincubated for 20 mins followed by substrate addition measured after 30 mins in presence of NADPH by LC-MS/MS analysis relative to control; settings: probe midazolam, read-out: Activity
CYP3A4 [11] = biological target: T3, CYP3A4; test: Inhibition of CYP3A4 in human liver microsomes assessed as enzyme-mediated metabolite formation at 0.3 uM using testosterone as substrate preincubated for 20 mins followed by substrate addition measured after 30 mins in presence of NADPH by LC-MS/MS analysis relative to control; settings: probe testosterone, read-out: Activity

T3 sequence (P08684 whole entry): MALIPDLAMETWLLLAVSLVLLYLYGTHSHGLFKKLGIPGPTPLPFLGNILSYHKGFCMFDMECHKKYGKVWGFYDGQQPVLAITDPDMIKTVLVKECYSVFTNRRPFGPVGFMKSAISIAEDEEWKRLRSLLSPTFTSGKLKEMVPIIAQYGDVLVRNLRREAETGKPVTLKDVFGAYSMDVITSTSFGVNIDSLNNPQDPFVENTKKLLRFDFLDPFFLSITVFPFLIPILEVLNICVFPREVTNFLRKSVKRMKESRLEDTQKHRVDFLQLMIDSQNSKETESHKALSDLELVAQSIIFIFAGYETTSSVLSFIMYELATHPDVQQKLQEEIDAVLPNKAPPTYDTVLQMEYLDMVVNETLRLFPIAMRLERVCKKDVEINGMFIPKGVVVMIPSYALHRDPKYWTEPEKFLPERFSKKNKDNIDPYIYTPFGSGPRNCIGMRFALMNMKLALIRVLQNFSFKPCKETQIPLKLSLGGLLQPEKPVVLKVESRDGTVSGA
Sequence of CYP2C9 (P11712 whole entry): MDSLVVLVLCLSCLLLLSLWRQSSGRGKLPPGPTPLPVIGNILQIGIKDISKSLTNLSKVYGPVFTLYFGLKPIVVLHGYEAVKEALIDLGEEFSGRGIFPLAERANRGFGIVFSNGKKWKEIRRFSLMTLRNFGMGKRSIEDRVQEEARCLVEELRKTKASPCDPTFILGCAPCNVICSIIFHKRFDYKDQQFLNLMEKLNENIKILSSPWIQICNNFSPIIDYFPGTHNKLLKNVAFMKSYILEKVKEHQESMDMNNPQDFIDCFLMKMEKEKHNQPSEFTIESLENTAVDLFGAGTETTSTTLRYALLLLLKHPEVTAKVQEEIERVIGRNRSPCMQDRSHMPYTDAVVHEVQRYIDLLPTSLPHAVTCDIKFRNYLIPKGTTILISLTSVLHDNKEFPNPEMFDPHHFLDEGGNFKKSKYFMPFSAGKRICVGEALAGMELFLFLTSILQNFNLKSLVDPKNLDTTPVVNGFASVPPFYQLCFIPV

activity at 0.5 h, 0.1 µM (CYP1A2 [1]): 100%
activity at 0.5 h, 0.1 µM (CYP2A6 [2]): 103%
activity at 0.5 h, 1 µM (CYP1A2 [3]): 79.2%
activity at 0.5 h, 3 µM (CYP1A2 [4]): 72%
activity at 0.5 h, 3 µM (CYP2A6 [5]): 80.8%
activity at 0.5 h, 1 µM (CYP2C9): 76.6%
activity at 0.5 h, 1 µM (CYP3A4 [6]): 88.5%
activity at 0.5 h, 30 µM (CYP3A4 [7]): 48.6%
activity at 0.5 h, 1 µM (CYP2B6 [8]): 79%
activity at 0.5 h, 10 µM (CYP2B6 [9]): 54.3%
activity at 0.5 h, 0.3 µM (CYP3A4 [10]): 88.9%
activity at 0.5 h, 0.3 µM (CYP3A4 [11]): 87.4%
Structure (SMILES): CCCCCCCC(=O)CCc1ccc(O)c(OC)c1
